Earlier results as cited in patent US20050266079A1, “Process for making aqueous coated beadlets” (SmithKline Beecham Corporation, priority 1999, published 2005).

Details: in vivo; cited from earlier work

SMILES: CN[C@@H](C)[C@@H](O)c1ccccc1.Cl [Pseudoephedrine HCl, (1S, 2S)-2-Methylamino-1-phenyl-1-propanol hydrochloride]
- elimination half life: 5 to 8 h
